Activity calls are given as the source filed them.
Legend:
[1] = P. falciparum 3D7-ScDHODH growth inhibitors, dose response, SYBR Green, dry powder samples (AID 1159570); type: functional, cell-based;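 note: parasite growth measured after 72 hours of compound exposure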
[2] = P. falciparum Dd2 growth inhibitors, dose response, SYBR Green, cherry-picked samples (AID 1159567); type: functional, cell-based
[3] = P. falciparum Dd2 growth inhibitors, dose response, SYBR Green, dry powder samples (AID 1159566); type: functional, cell-based;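 note: potency for growth inhibition with lower SYBR green DNA signal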
[4] = Plasmodium falciparum Dd2 Sybr green parasite growth Measured in Cell-Based and Microorganism Combination System Using Plate Reader - 2153-01_Inhibitor_Dose_DryPowder_Activity_Set3.; type: functional
[5] = P. falciparum ATP4 D1247Y mutant growth inhibitors, dose response, NITD609-resistant line, SYBR Green, dry powder (AID 1159571); type: functional, cell-based;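 note: parasites synchronized at ring stage by sorbitol before testing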
[6] = inhibitors of Vif binding to APOBEC3G peptide, primary screen, biochemical, TR-FRET, GST-Vif 1-94, biotin-A3G peptide, dose response retest (AID 1117319); type: functional;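 note: TR-FRET signal of purified GST-Vif binding a biotinylated A3G peptide; inhibitors lower the FRET signal by blocking Vif and A3G binding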
[7] = antifungal activity, alamar blue, dry powder, counter-screen for C. neoformans cell wall antifungals, dose response (AID 743128); type: functional, organism-based
Transthyretin = Transthyretin (Homo sapiens, UniProt P02766); assay: Luminescence-based cell-based high throughput dose response assay to identify activators of Transthyretin (TTR) transcription.; type: functional
[8] = target: Metabotropic glutamate receptor 7 (Homo sapiens, UniProt Q14831); assay: mGlu7 positive allosteric modulators, dose response, cell-based, calcium mobilization, Galpha15 (AID 743384); type: functional
Metabotropic glutamate receptor 7, sequence (Q14831 whole entry): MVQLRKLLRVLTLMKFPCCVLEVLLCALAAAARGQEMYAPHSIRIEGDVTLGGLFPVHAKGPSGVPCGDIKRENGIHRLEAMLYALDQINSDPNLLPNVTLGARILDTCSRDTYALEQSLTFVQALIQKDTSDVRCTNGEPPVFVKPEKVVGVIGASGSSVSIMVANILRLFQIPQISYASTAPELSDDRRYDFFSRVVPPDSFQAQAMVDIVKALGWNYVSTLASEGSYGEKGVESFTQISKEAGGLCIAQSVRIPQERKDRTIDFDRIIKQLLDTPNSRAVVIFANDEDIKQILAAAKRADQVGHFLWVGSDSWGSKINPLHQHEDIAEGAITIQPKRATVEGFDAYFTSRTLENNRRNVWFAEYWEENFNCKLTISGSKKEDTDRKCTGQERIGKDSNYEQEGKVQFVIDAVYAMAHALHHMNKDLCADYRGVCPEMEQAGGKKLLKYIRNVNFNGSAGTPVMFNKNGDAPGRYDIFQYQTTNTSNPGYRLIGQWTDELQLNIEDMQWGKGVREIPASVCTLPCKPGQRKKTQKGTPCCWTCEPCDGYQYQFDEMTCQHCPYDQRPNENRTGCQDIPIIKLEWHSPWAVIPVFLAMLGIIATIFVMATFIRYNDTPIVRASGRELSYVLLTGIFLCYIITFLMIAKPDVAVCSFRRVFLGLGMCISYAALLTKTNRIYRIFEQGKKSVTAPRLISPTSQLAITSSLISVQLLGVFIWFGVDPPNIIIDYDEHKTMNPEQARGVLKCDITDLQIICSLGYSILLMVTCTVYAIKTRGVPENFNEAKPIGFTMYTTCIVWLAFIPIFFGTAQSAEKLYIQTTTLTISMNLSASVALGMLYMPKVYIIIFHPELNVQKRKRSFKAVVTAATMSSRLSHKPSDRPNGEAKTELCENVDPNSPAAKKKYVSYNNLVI

[9] = target: E3 ubiquitin-protein ligase Mdm2 (Homo sapiens, UniProt Q00987); assay: enhancers of MDM2-luciferase reporter signal, concentration-effect titration, project on inhibitors of MDM2 ubiquitin ligase, cellular assay, luminescent readout, 384-well plate format (AID 1394); type: functional;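 note: MDM2 E3 inhibitors raise luminescence so EC50 is for signal enhancement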
E3 ubiquitin-protein ligase Mdm2, sequence (Q00987 whole entry): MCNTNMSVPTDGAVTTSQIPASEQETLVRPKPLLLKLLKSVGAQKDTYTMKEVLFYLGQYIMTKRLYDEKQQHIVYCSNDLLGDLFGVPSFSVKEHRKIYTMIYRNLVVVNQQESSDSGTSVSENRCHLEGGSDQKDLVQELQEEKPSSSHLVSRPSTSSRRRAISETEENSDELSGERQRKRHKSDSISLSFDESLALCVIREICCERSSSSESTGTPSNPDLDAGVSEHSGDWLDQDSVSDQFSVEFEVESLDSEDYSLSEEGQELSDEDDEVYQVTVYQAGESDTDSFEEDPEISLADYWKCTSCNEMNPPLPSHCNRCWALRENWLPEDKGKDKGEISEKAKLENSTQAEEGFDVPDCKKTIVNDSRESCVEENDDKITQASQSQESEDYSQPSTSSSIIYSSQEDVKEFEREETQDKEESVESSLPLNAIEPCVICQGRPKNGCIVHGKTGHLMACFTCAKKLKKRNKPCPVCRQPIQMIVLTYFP

[10] = A Cell-Based Confirmatory Screen for Compounds that Inhibit VEEV, TC-83 (5).; type: functional
[11] = A Cell-Based Confirmatory Screen for Compounds that Inhibit VEEV, TC-83 (3).; type: functional
[12] = A Cell-Based Confirmatory Screen for Compounds that Inhibit VEEV TC-83 (4).; type: functional
[13] = HepG2 cell cytotoxicity, dose response, cytotoxicity control, plate reader, dry powder, set 6 (AID 743311); type: functional, cell-based
cells [14] = conditions: HEK293
[15] = target: SWI/SNF-related matrix-associated actin-dependent regulator of chromatin subfamily A member 2 (Homo sapiens, UniProt P51531); assay: Luminescence-based cell-based high throughput dose response assay to identify activators of the function of SWI/SNF related, matrix associated, actin dependent regulator of chromatin, subfamily a, member 2 (SMARCA2, BRM).; type: functional
SWI/SNF-related matrix-associated actin-dependent regulator of chromatin subfamily A member 2, sequence (P51531 whole entry): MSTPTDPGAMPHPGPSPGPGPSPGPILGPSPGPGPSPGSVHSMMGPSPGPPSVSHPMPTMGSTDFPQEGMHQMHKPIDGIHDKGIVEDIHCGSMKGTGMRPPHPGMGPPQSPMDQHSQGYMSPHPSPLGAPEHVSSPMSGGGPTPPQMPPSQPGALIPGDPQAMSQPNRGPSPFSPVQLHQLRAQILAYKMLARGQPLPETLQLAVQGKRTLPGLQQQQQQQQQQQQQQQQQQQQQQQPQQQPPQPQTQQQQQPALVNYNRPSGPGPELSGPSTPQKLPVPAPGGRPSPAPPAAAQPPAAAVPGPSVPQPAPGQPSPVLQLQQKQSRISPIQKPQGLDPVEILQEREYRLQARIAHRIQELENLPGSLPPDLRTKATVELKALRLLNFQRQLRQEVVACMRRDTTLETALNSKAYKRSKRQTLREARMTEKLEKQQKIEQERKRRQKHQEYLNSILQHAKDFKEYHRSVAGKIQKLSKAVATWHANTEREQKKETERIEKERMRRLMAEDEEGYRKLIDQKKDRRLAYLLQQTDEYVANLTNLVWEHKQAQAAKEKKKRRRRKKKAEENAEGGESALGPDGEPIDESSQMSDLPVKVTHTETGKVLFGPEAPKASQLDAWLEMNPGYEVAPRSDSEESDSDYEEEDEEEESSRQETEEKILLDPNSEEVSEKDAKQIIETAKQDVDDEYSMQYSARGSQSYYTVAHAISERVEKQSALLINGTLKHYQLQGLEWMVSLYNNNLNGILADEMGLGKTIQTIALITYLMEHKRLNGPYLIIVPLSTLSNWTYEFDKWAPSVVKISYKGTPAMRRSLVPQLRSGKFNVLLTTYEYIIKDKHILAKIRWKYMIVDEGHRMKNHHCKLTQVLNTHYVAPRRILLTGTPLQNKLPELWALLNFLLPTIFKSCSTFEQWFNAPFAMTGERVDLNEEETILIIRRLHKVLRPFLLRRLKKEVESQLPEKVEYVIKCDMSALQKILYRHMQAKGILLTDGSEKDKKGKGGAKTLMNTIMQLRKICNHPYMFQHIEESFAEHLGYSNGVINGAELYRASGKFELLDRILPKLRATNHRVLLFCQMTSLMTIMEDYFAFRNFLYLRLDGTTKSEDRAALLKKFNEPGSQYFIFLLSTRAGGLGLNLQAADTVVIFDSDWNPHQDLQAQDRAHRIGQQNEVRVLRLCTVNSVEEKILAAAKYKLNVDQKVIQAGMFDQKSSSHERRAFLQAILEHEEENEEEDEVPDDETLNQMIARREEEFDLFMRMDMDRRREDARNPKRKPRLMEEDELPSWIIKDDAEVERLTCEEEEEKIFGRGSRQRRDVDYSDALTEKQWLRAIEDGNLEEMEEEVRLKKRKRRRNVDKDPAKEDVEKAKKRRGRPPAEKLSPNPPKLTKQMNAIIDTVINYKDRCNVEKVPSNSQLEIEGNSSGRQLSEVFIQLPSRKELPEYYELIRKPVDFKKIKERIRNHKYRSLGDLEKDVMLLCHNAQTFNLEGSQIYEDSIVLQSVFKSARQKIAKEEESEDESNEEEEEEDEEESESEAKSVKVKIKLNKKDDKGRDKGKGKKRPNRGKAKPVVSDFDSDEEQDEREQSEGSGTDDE

[16] = Counterscreen for activators of the function of SWI/SNF related, matrix associated, actin dependent regulator of chromatin, subfamily a, member 2 (SMARCA2, BRM): Luminescence-based cell-based high throughput dose response assay to identify non-selective compounds using the VP16 reporter assay.; type: functional
[17] = HepG2 cell cytotoxicity, dose response, cytotoxicity control, ATP luminescence, cherry-pick, set 6 (AID 1053125); type: functional, cell-based
cells [18] = conditions: A549
cells [19] = conditions: HEK293; remark: listed apart in the source
[20] = Concentration-dependent survival of SW480 colon cancer line, luminescence detection with CellTiter-Glo, half-maximal inhibitory concentration (AID 1117338); type: functional
[21] = RKO cell viability reduction, dose response, CellTiter-Glo luminescence (AID 1117322); type: functional
[22] = cytotoxicity toward HCT116 cells – cell-based, CellTiter-Glo luminescence, IC50, dose response (AID 1117332); type: functional; conditions: HCT-116
[23] = SNU-C1 cell viability reduction, dose response, CellTiter-Glo luminescence (AID 1117323); type: functional, cell-based
[24] = cytotoxicity toward Colo320 cells – cell-based, CellTiter-Glo luminescence, IC50, dose response (AID 1117334); type: functional; conditions: COLO 320
[25] = CellTiter-Glo luminescent dose response of DLD-1 viability loss (AID 1117352); type: functional
[26] = HCT116 cell viability decrease, GSK3B pretreatment – CellTiter-Glo, IC50, dose response (AID 1117339); type: functional; conditions: HCT-116

## CO[C@@H]1CN(C)C(=O)c2ccc(NC(=O)Nc3ccccc3F)cc2OC[C@@H](C)N(CCC(F)(F)F)C[C@H]1C
[1]
  AC50: 6.04 µM (active)
[2]
  AC50: 1.57 µM (active)
[3]
  AC50: 0.51 µM (active)
[4]
  AC50: 0.567 µM (active)
[5]
  AC50: 1.92 µM (active)

## Cc1cc(NC(=O)Cn2cnc3c(nnn3-c3cccc(F)c3)c2=O)no1
[6]
  IC50: > 100 µM (active)

## Cc1ccc(OCCn2cnc3ccccc32)cc1
[7]
  AC50: 38.9 µM (active)

## O=C(/C(=C(\[S-])Nc1ccc(SC(F)F)cc1)[n+]1ccccc1)c1cc(Cl)ccc1Cl
Transthyretin
  EC50: > 167 µM (inactive)

## COc1ccc(CSCC(=O)c2cc(C)n(-c3ccc(OC(F)F)cc3)c2C)cc1
[8]
  EC50: 10 µM (active)

## Cc1cc(C(=O)CSc2nnc(Nc3ccccc3)s2)c(C)n1CC1CCCO1 (configuration not stated)
[9]
  EC50: 20.4 µM (not active)

## CN1CCN(Cc2nc3ccc([N+](=O)[O-])cc3c(=O)n2-c2ccccc2F)CC1
[10]
  IC50: 0.65 µM (active)
[11]
  IC50: < 0.72 µM (active)
[12]
  IC50: 0.74 µM (active)

## c1ccc(COc2ccc(OCCn3cnc4ccccc43)cc2)cc1
[13]
  AC50: > 52 µM (inactive)
Cells [14]
  AC50: > 52 µM (inactive)

## N#Cc1ccc(/C=C\c2[nH]ccc3c4ccccc4nc2-3)cc1
[15]
  EC50: > 91.2 µM (inactive)
[16]
  EC50: > 91.2 µM (inactive)
[17]
  AC50: 40.7 µM (active)
Cells [18]
  AC50: 24.2 µM (active)
Cells [19]
  AC50: > 52 µM (inactive)

## C[S+](CC[C@H](N)C(=O)O)C[C@H]1O[C@@H](n2cnc3c(N)ncnc32)[C@H](O)[C@H]1O (some centres not stated)
[20]
  IC50: > 20 µM (inactive)
[21]
  IC50: > 20 µM (inactive)
[22]
  IC50: > 20 µM (inactive)
[23]
  IC50: > 20 µM (inactive)
[24]
  IC50: > 20 µM (inactive)
[25]
  IC50: > 20 µM (inactive)
[26]
  IC50: > 20 µM (inactive)
